According to paper doi:10.1101/2021.10.07.463234v2 (biorxiv, 2021):
Counter-ions that a name gives are not always drawn.

These molecules were tested against SARS-CoV-2 Mac1 (Severe acute respiratory syndrome coronavirus 2, UniProt P0DTD1) (assay: biochemical). Settings: 100 µM; inhibitor.

Row | SMILES | %inhibition [%]
1 | O=C(O)Cc1ccccc1Nc1c(Cl)cccc1Cl [Diclofenac Sodium] | 15.35
2 | CC(C)N(CCC(C(N)=O)(c1ccccc1)c1ccccn1)C(C)C (stereo not drawn) [Disopyramide Phosphate] | 0
3 | CC(C)N(CCC(C(N)=O)(c1ccccc1)c1ccccn1)C(C)C (stereo not drawn) [Disopyramide] | 8.31
4 | CCN(CC)C(=S)SSC(=S)N(CC)CC [Disulfiram] | 0
5 | CCCC(CCC)C(=O)O [Divalproex Sodium] | 5.124
6 | CC(=O)O[C@@]12CO[C@@H]1C[C@H](O)[C@@]1(C)C(=O)[C@H](O)C3=C(C)[C@@H](OC(=O)[C@H](O)[C@@H](NC(=O)OC(C)(C)C)c4ccccc4)C[C@@](O)([C@@H](OC(=O)c4ccccc4)[C@H]21)C3(C)C [Docetaxel Trihydrate] | 6.628
7 | COc1cc2c(cc1OC)C(=O)C(CC1CCN(Cc3ccccc3)CC1)C2 (stereo not drawn) [Donepezil HCl] | 0
8 | COc1cc2c(cc1OC)C(=O)C(CC1CCN(Cc3ccccc3)CC1)C2 (stereo not drawn) [Donepezil] | 5.95
9 | C[C@@H](O)[C@H]1C(=O)N2C(C(=O)O)=C(S[C@@H]3CN[C@H](CNS(N)(=O)=O)C3)[C@H](C)[C@H]12 [Doripenem Hydrate] | 0
10 | C[C@@H](O)[C@H]1C(=O)N2C(C(=O)O)=C(S[C@@H]3CN[C@H](CNS(N)(=O)=O)C3)[C@H](C)[C@H]12 [Doripenem] | 1.128
11 | CN1CCN(c2ccc3nc(-c4c(N)c5c(F)cccc5[nH]c4=O)[nH]c3c2)CC1 [Dovitinib (TKI258) Lactate] | 26.03
12 | CN1CCN(c2ccc3nc(-c4c(N)c5c(F)cccc5[nH]c4=O)[nH]c3c2)CC1 [Dovitinib (TKI-258, CHIR-258)] | 50.41
13 | CCN1CC(CCN2CCOCC2)C(c2ccccc2)(c2ccccc2)C1=O (stereo not drawn) [Doxapram HCl] | 9.802
14 | CCN1CC(CCN2CCOCC2)C(c2ccccc2)(c2ccccc2)C1=O (stereo not drawn) [Doxapram] | 4.735
15 | C[C@H]1c2cccc(O)c2C(=O)C2=C(O)[C@]3(O)C(=O)C(C(N)=O)=C(O)[C@@H](N(C)C)[C@@H]3[C@@H](O)[C@@H]21 [Doxycycline Hyclate] | 21.8
16 | C[C@H]1c2cccc(O)c2C(=O)C2=C(O)[C@]3(O)C(=O)C(C(N)=O)=C(O)[C@@H](N(C)C)[C@@H]3[C@@H](O)[C@@H]21 [Doxycycline] | 4.525
17 | CNCC[C@H](Oc1cccc2ccccc12)c1cccs1 [Duloxetine HCl] | 0
18 | CNCC[C@H](Oc1cccc2ccccc12)c1cccs1 [Duloxetine] | 8.877

Same assay, conditions: read-out: %inhibition

Row | SMILES | inhibition at 100 µM [%]
19 | Cc1onc(-c2c(Cl)cccc2Cl)c1C(=O)N[C@@H]1C(=O)N2[C@@H]1SC(C)(C)[C@@H]2C(=O)O [Dicloxacillin Sodium] | 10.8
20 | O=c1oc2ccccc2c(O)c1Cc1c(O)c2ccccc2oc1=O [Dicoumarol] | 13.4
21 | C[C@]12CCC3=C4CCC(=O)C=C4CC[C@H]3[C@@H]1CC[C@@]2(O)CC#N [Dienogest] | 22
22 | CCN(CC)C(=O)N1CCN(C)CC1 [Diethylcarbamazine citrate] | 0
23 | CN1CCN(c2cc3c(cc2F)c(=O)c(C(=O)O)cn3-c2ccc(F)cc2)CC1 [Difloxacin HCl] | 2.61
24 | O=C(O)c1cc(-c2ccc(F)cc2F)ccc1O [Diflunisal] | 0.967
25 | CCCC(=O)O[C@]1(C(=O)COC(C)=O)CC[C@H]2[C@@H]3C[C@H](F)C4=CC(=O)C=C[C@]4(C)[C@@]3(F)[C@@H](O)C[C@@]21C [Difluprednate] | 22.2
26 | C[C@H]1O[C@@H](O[C@H]2[C@@H](O)C[C@H](O[C@H]3[C@@H](O)C[C@H](O[C@H]4CC[C@@]5(C)[C@H](CC[C@@H]6[C@@H]5C[C@@H](O)[C@]5(C)[C@@H](C7=CC(=O)OC7)CC[C@]65O)C4)O[C@@H]3C)O[C@@H]2C)C[C@H](O)[C@@H]1O [Digoxin] | 13.2
27 | N/N=c1\[nH][nH]/c(=N\N)c2ccccc12 [Dihydralazine sulphate] | 45.1
28 | C[C@H]1[C@@H](O)O[C@@H]2O[C@@]3(C)CC[C@H]4[C@H](C)CC[C@@H]1[C@@]24OO3 [Dihydroartemisinin (DHA)] | 0
29 | CN[C@@H]1[C@H](O[C@H]2[C@H](O[C@H]3[C@H](O)[C@@H](O)[C@H](N=C(N)N)[C@@H](O)[C@@H]3N=C(N)N)O[C@@H](C)[C@]2(O)CO)O[C@@H](CO)[C@H](O)[C@H]1O [Dihydrostreptomycin sulfate] | 6.08
30 | Oc1c(I)cc(I)c2cccnc12 [Diiodohydroxyquinoline] | 6.28
31 | COc1ccc([C@@H]2Sc3ccccc3N(CCN(C)C)C(=O)[C@@H]2OC(C)=O)cc1 [Diltiazem HCl] | 25.7
32 | Cc1ccc2c(c1)[C@]13CCCC[C@@H]1[C@H](C2)N(C)CC3 [Dimemorfan phosphate] | 0
33 | O=S(=O)(O)CCSSCCS(=O)(=O)O [Dimesna] | 22.1
34 | COC(=O)/C=C/C(=O)OC [Dimethyl Fumarate] | 23.8
35 | Cc1c(C(N)=O)cc([N+](=O)[O-])cc1[N+](=O)[O-] [Dinitolmide] | 6.05
36 | CCCCC[C@H](O)/C=C/[C@@H]1[C@@H](C/C=C\CCCC(=O)O)[C@@H](O)C[C@H]1O [Dinoprost tromethamine] | 32.6
37 | COc1ccc(-c2cc(=O)c3c(O)cc(O[C@@H]4O[C@H](CO[C@@H]5O[C@@H](C)[C@H](O)[C@@H](O)[C@H]5O)[C@@H](O)[C@H](O)[C@H]4O)cc3o2)cc1O [Diosmin] | 11.9
38 | O=C(Nc1ccccc1)OCC(CN1CCCCC1)OC(=O)Nc1ccccc1 (stereo not drawn) [Diperodon HCl] | 0.82
39 | C[N+]1(C)CCC(=C(c2ccccc2)c2ccccc2)CC1 [Diphemanil Methylsulfate] | 0
40 | OC(CCCN1CCCCC1)(c1ccccc1)c1ccccc1 [Diphenidol HCl] | 3
41 | CN1CCC(OC(c2ccccc2)c2ccccc2)CC1 [Diphenylpyraline HCl] | 0
42 | OCCN(CCO)c1nc(N2CCCCC2)c2nc(N(CCO)CCO)nc(N3CCCCC3)c2n1 [Dipyridamole] | 26.7
43 | CC[C@H]1OC(=O)[C@H](C)[C@@H](O[C@H]2C[C@@](C)(OC)[C@@H](O)[C@H](C)O2)[C@H](C)[C@@H](O[C@@H]2O[C@H](C)C[C@H](N(C)C)[C@H]2O)[C@](C)(O)C[C@@H](C)[C@@H]2N[C@@H](COCCOC)O[C@H]([C@H]2C)[C@]1(C)O [Dirithromycin] | 28.8
44 | O=C(O)c1cc(=O)c2c(OCC(O)COc3cccc4oc(C(=O)O)cc(=O)c34)cccc2o1 [Disodium Cromoglycate] | 3.63

Row | SMILES | inhibition at 100 µM [%]
45 | O=C1c2c(O)cccc2Cc2cccc(O)c21 [Dithranol] | 18.7
46 | CC(=O)O[C@@]12CO[C@@H]1C[C@H](O)[C@@]1(C)C(=O)[C@H](O)C3=C(C)[C@@H](OC(=O)[C@H](O)[C@@H](NC(=O)OC(C)(C)C)c4ccccc4)C[C@@](O)([C@@H](OC(=O)c4ccccc4)[C@H]21)C3(C)C [Docetaxel] | 11.6
47 | CCCCC(CC)COC(=O)CC(C(=O)OCC(CC)CCCC)S(=O)(=O)O (stereo not drawn) [Docusate Sodium] | 14.3
48 | CN(CCOc1ccc(NS(C)(=O)=O)cc1)CCc1ccc(NS(C)(=O)=O)cc1 [Dofetilide] | 8.13
49 | O=C(O[C@@H]1C[C@@H]2C[C@H]3C[C@H](C1)N2CC3=O)c1c[nH]c2ccccc12 [Dolasetron] | 7.05
50 | C[C@@H]1CCO[C@H]2Cn3cc(C(=O)NCc4ccc(F)cc4F)c(=O)c(O)c3C(=O)N12 [Dolutegravir (GSK1349572)] | 9.9
51 | CCCCCCCCCCCC[N+](C)(C)CCOc1ccccc1 [Domiphen Bromide] | 0.79
52 | NCCc1ccc(O)c(O)c1 [Dopamine HCl] | 39.1
53 | Cc1ccc(-n2nc(C(C)(C)C)cc2NC(=O)Nc2ccc(OCCN3CCOCC3)c3ccccc23)cc1 [Doramapimod (BIRB 796)] | 0
54 | COc1cc2nc(N3CCN(C(=O)C4COc5ccccc5O4)CC3)nc(N)c2cc1OC (stereo not drawn) [Doxazosin Mesylate] | 14.6
55 | C=C1/C(=C\C=C2/CCC[C@]3(C)[C@@H]([C@H](C)/C=C/[C@H](C)C(C)C)CC[C@@H]23)C[C@@H](O)C[C@@H]1O [Doxercalciferol] | 0
56 | C[C@H]1O[C@@H](n2cc(F)c(=O)[nH]c2=O)[C@H](O)[C@@H]1O [Doxifluridine] | 0
57 | Cn1c(=O)c2c(ncn2CC2OCCO2)n(C)c1=O [Doxofylline] | 1.49
58 | COc1cccc2c1C(=O)c1c(O)c3c(c(O)c1C2=O)CC(O)(C(=O)CO)CC3OC1CC(N)C(O)C(C)O1 (stereo not drawn) [Doxorubicin (Adriamycin) HCl] | 18.3
59 | CN(C)CCOC(C)(c1ccccc1)c1ccccn1 (stereo not drawn) [Doxylamine Succinate] | 4.4
60 | CCCCc1oc2ccc(NS(C)(=O)=O)cc2c1C(=O)c1ccc(OCCCN(CCCC)CCCC)cc1 [Dronedarone HCl] | 0
61 | O=C(CCCN1CC=C(n2c(=O)[nH]c3ccccc32)CC1)c1ccc(F)cc1 [Droperidol] | 1.08
62 | OCC(O)CN1CCN(c2ccccc2)CC1 (stereo not drawn) [Dropropizine] | 20.7
63 | C[C@]12CCC(=O)C=C1[C@@H]1C[C@@H]1[C@H]1[C@@H]3[C@@H]4C[C@@H]4[C@@]4(CCC(=O)O4)[C@@]3(C)CC[C@@H]12 [Drospirenone] | 0
64 | C[C@]12C=CC(=O)N[C@@H]1CC[C@@H]1[C@@H]2CC[C@]2(C)[C@@H](C(=O)Nc3cc(C(F)(F)F)ccc3C(F)(F)F)CC[C@@H]12 [Dutasteride] | 12
65 | C[C@H](Nc1ncnc2nc[nH]c12)c1cc2cccc(Cl)c2c(=O)n1-c1ccccc1 [Duvelisib (IPI-145, INK1197)] | 2.52
66 | CCCCOc1ccc(C(=O)CCN2CCCCC2)cc1 [Dyclonine HCl] | 0
67 | Cn1c(=O)c2c(ncn2CC(O)CO)n(C)c1=O (stereo not drawn) [Dyphylline] | 0.0817
68 | CC(C)c1cc2c(cc1S(=O)(=O)O)[C@@]1(C)CCC[C@@](C)(C(=O)O)[C@@H]1CC2 [Ecabet sodium] | 10.4
69 | CC1=NN(c2ccccc2)C(=O)C1 [Edaravone] | 5.75
